# Earlier results, collected in patent US20170172144A1, “ECTOPARASITE FORMULATION” (priority 2014, published 2017).
# Structures can show the parent of a compound that is named as a salt.
# Settings: qualitative statement
row,Compound,aqueous solubility
1,"c1ccc([C@H]2CN3CCSC3=N2)cc1 [levamisole hydrochloride, Levamisole hydrochloride]",soluble
2,"COC(=O)Nc1nc2ccc([S+]([O-])c3ccccc3)cc2[nH]1 (stereo not drawn) [oxfendazole, Oxfendazole]",relatively low solubility
3,Abamectin,relatively low solubility
